“Also recorded” adds a separate entry of the source. Like-named read-outs stand apart in the source and are kept apart here.
What was measured:
cowpox = details: cidofovir 30 mg/kg i.p.; Smee et al. 2002; cited from earlier work
[1] = tested on: bone marrow derived dendritic cells (DC's); test: TLR7 signaling in bone marrow derived dendritic cells; format: cell-based; details: DC's stimulated by R-848 with Mb
Method: Bone marrow derived DC's were stimulated by R-848 with or without Mb for the indicated time period, and activation of NF-κB, MAP kinases (p38 and EKR) was measured. Actin levels were measured as a control.

splenocytes = test: Type I interferon production by splenocytes (bioassay); format: cell-based, mice; details: for TLR7 mediated type I interferon production in splenocytes: TOG or R-848 with or without Mb 10 μM, 24 hrs
Method: (§1) Type I interferon in serum was measured and results are shown.
Splenocytes of WT or SCID mice were stimulated with the indicated stimuli and Type I interferon was by bioassay.
(FIG. 20.) Splenocytes of WT or SCID mice were stimulated with the indicated stimuli and Type I interferon levels were determined by bioassay.

[2] = tested on: IRF-1, IRF-3, IRF-7, NF-kB, STAT-1; test: Activation of IRFs, NF-kB and STAT-1 in BMDM (immunoblotting of nuclear extracts, EMSA); format: cell-based, mouse
[3] = tested on: Type I interferon in serum; test: Type I interferon in serum of mice injected with TOG and Mb; format: in vivo; details: mice injected intravenously with TOG 250 μg and increasing doses of Mb
Method: as §1

[4] = tested on: Mouse bone marrow-derived macrophages (BMDM); test: Cytokine production of TLR ligand-stimulated BMDM with IMPDH inhibitors (ELISA); format: cell-based; details: for IL-12 production with TOG plus IMPDH inhibitor: TOG 100 μM, mizoribine 10 μM or mizoribine base 10 μM; for cytokine production induced by several different TLR-L: mouse bone marrow derived macrophages
[5] = tested on: human peripheral blood leukocytes (hPBL); test: IL-12 production in human peripheral blood leukocytes (ELISA); format: cell-based; details: TOG 100 μM, 24 hours
[6] = tested on: human peripheral blood mononuclear cells; test: Cytokine production of TLR-L-stimulated human peripheral blood mononuclear cells with IMPDH inhibitors; format: cell-based
STAT-1 = STAT-1 activation in hPBL (western blotting); format: cell-based, human; details: by TOG, R-848 1 μM plus increasing doses, 3 hrs
Method: In the right panel, hPBL were stimulated with R-848 (1 μM) plus increasing doses of Mb or ribavirin (Rb) for 3 hrs and activation of STAT-1 was measured by western blotting. β-actin levels were measured as a control

[7] = tested on: DNA dependent protein kinase catalytic subunit (DNA-PKcs); test: Activation of DNA-PK in BMDM (in vitro kinase assay, GST-p53 substrate or autophosphorylation); format: cell-based
Method: IMPDH inhibitors and TLR7 activate DNA-PK. BMDM were stimulated with the Mb alone, TOG alone, or a combination of Mb and TOG. Activation of DNA-PK was measured by in vitro kinase assay using a GST-p53 substrate or DNA-PKcs autophosphorylation.
Activation of DNA-PK was measured by in vitro kinase assay using a GST-p53 substrate or DNA-PKcs autophosphorylation.

BALB/c mice = test: Systemic adjuvant activity: intradermal immunization with ovalbumin (OVA) and TLR ligand; format: in vivo
Method: Recently, the systemic adjuvant activities of other TLR-Ls were evaluated.
Six-week-old BALB/c mice (4 per group) were intradermally immunized with ovalbumin (OVA) (20 ug) and TLR ligand on day 0 and day 7. During week 6, serum was collected and splenocytes were harvested and cultured with OVA (50 ug/ml). After 3 days, splenocyte culture supernatants were collected. Sera Ig levels and splenocyte supernatant cytokine levels were determined by ELISA. Results are reported as means ± standard errors. n.d.=none detected.

[8] = tested on: murine bone marrow mononuclear cells; test: Cytokine responses of murine bone marrow mononuclear cells to TLR ligands (ELISA); format: cell-based; details: 48 hours, supernatant ELISA, PolyI:C 100 μg/ml, LPS 1 μg/ml, ISS-ODN 10 μg/ml, n.d.=none detected
Method: The cytokine responses of murine bone marrow mononuclear cells were compared to a TLR2-L (PGS), a TLR3-L (polyI:C), a TLR4-L(LPS), and a TLR9-L (ISS-ODN). IL-12, IL-10, IL-6, IL-1b, and KC (a chemokine) were assayed by ELISA (See 2.1.b Results).
Bone marrow cells were cultured in triplicate at 5×10^5 cells/ml with each TLR ligand in dose response studies covering a 3 log concentration range. The cells were cultured for 48 hours and supernatant cytokine levels were analyzed by ELISA. The minimal optimal concentration for each reagent was reported with a three fold increase in TLR ligand concentration not leading to any significant increase in cytokine production. Results are reported as means ± standard errors. n.d.=none detected

Punta toro = details: literature (Smee et al.; Sidwell et al.); cited from earlier work
mice [9] = details: cited from earlier work
mice [10] = test: ISS pre-priming before β-gal immunization (splenocyte IFN-γ and CTL response); format: in vivo; details: ISS up to 14 days prior to β-gal, compared to β-gal alone (P≦0.05)
Text: FIG. 3 depicts splenocyte CTL and IFN-γ response after intradermal ISS pre-priming. Results represent the mean ± SE for four mice in each group and similar results were obtained in two other independent experiments. […] (a) IFN-γ response. […] (C) Comparison of CTL response at an effector:target ratio of 25:1.
In this experiment, the amount of time between which a mouse exposed to an antigen can produce an immune response was examined. (FIG. 3)
The results in FIG. 3 represent the mean ± SE for four mice in each group. Similar results were obtained in two other independent experiments. […] (A) IFN-γ response. […] (C) Comparison of CTL response at an effector:target ratio of 25:1.

Salmonella = details: human macrophages treated overnight with IFN-γ 100 ng/ml; over 24 hours; cited from earlier work
Listeria monocytogenes = test: Listeria infection in mice pretreated with TLR ligands; format: in vivo; details: 10 μg three days before infection with 7×10^5 Listeria monocytogenes, observed nine days
Method: Groups of six mice were injected with 10 μg of either ISS-ODN, Pam3Cys, or polyI:C three days before infection with 7×10^5 Listeria monocytogenes. […] 5 mice also each received 10 μg of R-848, 24 hours before infection. […]

[11] = splenocytes of week 6 cultured 3 days with OVA 50 ug/ml, supernatant ELISA, same immunization, n.d.=none detected

Nc1ccn(C[C@@H](CO)OCP(=O)(O)O)c(=O)n1 [Cidofovir, cidofovir]
lung viral titer (cowpox): ~10^7 PFU/g of lung | protection of mice from death (cowpox): protects all mice from death

NC(=O)c1[nH]cnc1O [mizoribine base]
TLR7 signaling (NF-κB, MAP kinases p38 and EKR) [1]: enhanced TLR7 signaling in DC's | TLR7 mediated type I interferon production in splenocytes (splenocytes): augments TLR-7 mediated type I interferon production | dependence of type I interferon induction by TOG combined with Mb on DNA-PKcs (splenocytes; splenocytes of WT or SCID mice, TOG 100 μM, Mb 10 μM): partially dependent on DNA-PKcs | dependence of IRF activation on DNA-PKcs and MyD88 ([2]; cells from wild-type mice and SCID mice): via DNA-PKcs but not MyD88 | increase of Type I interferon in blood (serum) [3]: augments TLR-7 mediated type I interferon production | IL-12 production with TOG plus IMPDH inhibitor ([4]; 24 hrs): synergize with TOG | cytokine production induced by several different TLR-L [4]: potentiated cytokine production | IL-12 production after stimulation with TOG [5]: enhanced the increase of IL-12 production | cytokine production induced by several different TLR-L [6]: potentiated cytokine production | activation of STAT-1 (STAT-1): enchanced activiation | DNA-PK activation by the combination of TOG and Mb [7]: increased phosphorylation of substrates and earlier onset of phosphorylation

PolyI:C
systemic adjuvant activity for vaccination (BALB/c mice; mouse, in vivo): effective systemic adjuvants | IgGl (BALB/c mice; serum, week 6, OVA 20 ug + TLR ligand i.d. day 0 and day 7, PGS 50 ug, PolyI:C 50 ug, LPS 20 ug, ISS-ODN 50 ug): 18853 ± 2439 U/ml | IgG2a (BALB/c mice; serum, week 6, OVA 20 ug + TLR ligand i.d. day 0 and day 7, PGS 50 ug, PolyI:C 50 ug, LPS 20 ug, ISS-ODN 50 ug, n.d.=none detected): 2642 ± 380 U/ml | IFNg (BALB/c mice; [11]): 672 ± 322 pg/mL | IL-5 (BALB/c mice; [11]): 236 ± 87 pg/mL | IL-12 ([8]; 5×10^5 cells/ml, minimal optimal concentration: PGS 100 μg/ml, means ± standard errors): 570 ± 62 pg/mL | IL-1b ([8]; PGS 100 μg/ml): 148 ± 27 pg/mL | IL-6 ([8]; PGS 100 μg/ml): 2380 ± 657 pg/mL | IL-10 ([8]; PGS 100 μg/ml): 1374 ± 237 pg/mL | KC ([8]; chemokine, PGS 100 μg/ml): 349 ± 62 pg/mL

NC(=O)c1ncn([C@@H]2O[C@H](CO)[C@@H](O)[C@H]2O)n1 [Ribavirin]
TOG-induced NF-κB activation (EMSA) and IRF-3 (western blotting) ([2]; BMDM, TOG with Rb 50 μM): enhances TOG-induced NF-κB activation and activates IRF-3 transcription factor | protection of mice from Punta toro virus infection (Punta toro): significant activity | IL-6 production by R-848 in the presence of ribavirin ([4]; macrophages, abolished by addition of guanosine to the media (not shown)): enhancement of IL-6 production by R-848 | cytokine production induced by several different TLR-L [4]: potentiated cytokine production | cytokine induction by ribavirin alone ([4]; no TLR ligand): did not induce any cytokines | TLR-mediated production of IL-12 (p40) in the presence of ribavirin ([4]; ribavirin 10, 50, 100 μM, TLR ligands TOG 100 μM, R-848 1 μM, Pam3Cys 5 μg, p(I:C) 5 μg, LPS 10 ng, ISS 5 μg, 24 hrs): enhances TLR-mediated production of IL-12 (p40) in a dose dependent manner | IL-12 production after stimulation with TOG [5]: enhanced the increase of IL-12 production | cytokine production induced by several different TLR-L [6]: potentiated cytokine production | activation of STAT-1 (STAT-1): enchanced activiation

COc1c(C)c2c(c(O)c1C/C=C(\C)CCC(=O)O)C(=O)OC2 [mycophenolic acid]
IL-12 production after stimulation with TOG [5]: enhanced the increase of IL-12 production

Nc1nc2c(ccn2[C@@H]2O[C@H](CO)[C@@H](O)[C@H]2O)c(=O)[nH]1 [7-deazaguanosine]
protection of mice from Punta toro virus infection (Punta toro): protected mice from lethal infection | toxicity to mice (mice [9]; after systemic administration): remarkably non-toxic to mice

Nc1nc2c(sc(=O)n2[C@@H]2O[C@H](CO)[C@@H](O)[C@H]2O)c(=O)[nH]1 [TOG, 7-thia-8-oxoguanosine]
levels of nuclear IRF-1, IRF-3 and IRF-7 ([2]; bone marrow cells exposed to TOG): increase markedly | protection of mice from Punta toro virus infection (Punta toro): protected mice from lethal infection; also recorded: significant activity | toxicity to mice (mice [9]; mouse, in vivo): remarkably non-toxic to mice | activation of DNA-PKcs ([7]; single agents): activate DNA dependent protein kinase catalytic subunit (DNA-PKcs)

NC(=O)c1ncn([C@@H]2O[C@H](CO)[C@@H](O)[C@H]2O)c1O [Mizoribine, mizoribine]
TLR7 mediated type I interferon production in splenocytes (splenocytes): more than two-fold | increase of Type I interferon in blood (serum) [3]: more than 4 fold | IL-12 production with TOG plus IMPDH inhibitor ([4]; 24 hrs): synergize with TOG | cytokine production induced by several different TLR-L [4]: potentiated cytokine production | cytokine production induced by several different TLR-L [6]: potentiated cytokine production

m-ODN: control mutated ODN 5′-TGACTGTGAAGGTTAGAGATGA-3′ that lacks ISS activity (DNA, all phosphorothioate, methylation of C not given here)
CTL response (mice [10]): did not demonstrate an increased IFN-γ or CTL response | splenocyte IFN-γ response (mice [10]): did not demonstrate an increased IFN-γ or CTL response

IFN-γ
killing of the inoculum (Salmonella): 90-99%

Pam3Cys
protection (survival) of mice from Listeria infection (Listeria monocytogenes): lived longer than controls

CCCCCCn1cnc2c(=O)[nH]c(N)nc21 [9-hexylguanine]
protection of mice from Punta toro virus infection (Punta toro): protected mice from lethal infection

Reference: US20050004144A1, “Combined use of IMPDH inhibitors with toll-like receptor agonists” (REGENTS OF THE UNIVERSITY OF CALIFORNIA, priority 2003, published 2005)
